Results on 16 molecules are retold here after US20100075978A1, “SULFONAMIDE DERIVATIVES AS BRADYKININ ANTAGONISTS” (priority 2006, published 2010).

Assay [1] concerns the target T1, recombinant human B1 receptors (Homo sapiens, UniProt P46663).
T1 construct: host or cells: CHO (CHO-B1)
T1 sequence (P46663 1-353): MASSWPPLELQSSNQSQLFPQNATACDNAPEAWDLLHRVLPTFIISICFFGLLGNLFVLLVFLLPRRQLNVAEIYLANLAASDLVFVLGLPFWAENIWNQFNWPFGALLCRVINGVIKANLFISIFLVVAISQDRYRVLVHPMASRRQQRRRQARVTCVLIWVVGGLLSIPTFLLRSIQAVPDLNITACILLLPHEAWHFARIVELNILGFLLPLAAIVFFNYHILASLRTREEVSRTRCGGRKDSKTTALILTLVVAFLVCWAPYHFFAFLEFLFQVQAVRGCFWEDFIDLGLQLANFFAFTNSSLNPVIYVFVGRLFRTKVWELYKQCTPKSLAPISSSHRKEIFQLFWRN
The assay can be described thus: Functional assay: cytosolic calcium ion concentration measured with plate reader fluorimeter in CHO-B1 cells, agonist LysDABK. Format: cell-based. To be noted: CHO-B1 cells, LysDABK at EC80, [Ca2+]i; read-out: B1 func. On the procedure: Assessment of Antagonist Potency at B1 and B2 Receptors In Vitro by Measurement of Cytosolic Calcium Ion Concentration with a Plate Reader Fluorimeter in Cells Expressing Recombinant Human B1 or B2 Receptors
Chinese hamster ovary (CHO) cells stably expressing recombinant human B1 (CHO-B1, Euroscreen) or B2 (CHO-B2, Perkin-Elmer) receptors were cultured in Dulbecco's Modified Eagle's Medium (DMEM) containing 10% Fetal Calf Serum (FCS), 100 U/ml penicillin, 0.1 mg/ml streptomycin, 0.25 μg/ml amphotericin B, 1% Minimum Essential Medium Eagle (MEM), non essential amino acid solution, 600 μg/ml G418, 1% pyruvate (for the B2 cell line). Cells were kept at 37° C. in a humidified incubator in an atmosphere of 5% CO2/95% air and were passaged 1:4 three times a week. Cells were plated at 1.5-2.5×10^4 cell/well on standard 96-well microplates, measurements of cytosolic calcium ion concentration ([Ca^2+]i) were carried out 1-2 days after cell plating.
Measurements of [Ca^2+]i were carried out on CHO-B1 and CHO-B2 cells stably expressing human B1 and B2 receptors, respectively. Cells were grown in standard 96-well microplates and before the measurement were loaded with a fluorescent Ca^2+-sensitive dye, fluo-4/AM (2 μM): after removing the culture medium the dye was added to the cells (dissolved in assay buffer: 145 mM NaCl, 5 mM KCl, 2 mM MgCl2, 2 mM CaCl2, 10 mM HEPES, 20 mM D-glucose, 2 mM probenecid, 100 μl/well) and cells were incubated at 37° C. in a humidified incubator in an atmosphere of 5% CO2/95% air for 40-120 min. To stop dye loading cells were washed twice with assay buffer. After washing, various concentrations of the test compounds (diluted in extracellular medium from a DMSO stock solution, final DMSO concentration was <0.1%) or buffer were added to each well depending on the experimental setup. After incubation at 37° C. for 20-25 min. baseline and agonist-evoked changes of [Ca^2+]i were measured column by column with a plate reader fluorimeter (Fluoroskan Ascent, Labsystems). Excitation and detection of emission was carried out from the bottom of the plate. Filters used for Fluo-4: excitation filter—485 nm, emission filter—538 nm. The whole measurement process was performed at 37° C. and was controlled by custom software. Inhibitory potency of the test compounds was assessed by measuring the reduction in the agonist-evoked [Ca^2]i-elevation in the presence of different concentrations of the compounds. The agonists were LysDABK for CHO-B1, and bradykinin for CHO-B2 cells. Agonists were applied at an EC80 concentration, the EC80-values were derived from daily determined dose-response curves. Fluorescence data were expressed as ΔF/F (fluorescence change normalized to baseline). All treatments on a single plate were measured in multiple wells. Data from all wells with the same treatment were averaged and the average values were used for analysis. Inhibitory potency of a compound at a single concentration point was expressed as percent inhibition of the control agonist response. Sigmoidal concentration-inhibition curves were fitted to the data (derived from at least three independent experiments) and IC50-values were determined as the concentration that produces half of the maximal inhibition caused by the compound.

Assay [2] has as its target T2, human recombinant bradykinin B1 receptor (Homo sapiens, UniProt P46663).
T2 construct: purchased Euroscreen ES-091; host or cells: CHO cells
T2 sequence (P46663 1-353): T1 sequence (P46663 1-353)
The assay can be described thus: Human recombinant bradykinin B1 receptor binding. The settings on record: radioligand [3H]-[Des-Arg10] Kallidin, CHO cell membranes; read-out: B1 binding. As for the experimental part: 1. Human Recombinant Bradykinin B1 Receptor Binding
Binding assays were carried out on human recombinant bradykinin) receptors (expressed in CHO cells) according to the Euroscreen Technical Data Sheet (Cat.No.:ES-091). 20 μg protein/tube was incubated with [3,4-prolyl-3,4-^3H(N)]-[Des-Arg^10] Kallidin as radioligand. Non specific binding was determined in the presence of 10 μM Lys-des-Arg^9-Bradykinin. The final incubation volume was 250 μl. Samples were incubated for 15 min. at 25° C. then were rapidly vacuum filtered through GF/B filters presoaked for at least 1 h in 0.5% PEI. Radioactivity was determined by liquid scintillation spectroscopy.

Where a name gives a salt, the structure may show the parent alone.

Turning to `O=C(NCCCC1CCNCC1)c1ccc(S(=O)(=O)Nc2ccccc2Oc2ccc(Cl)cc2Cl)cc1` [Example 137, 4-[2-(2,4-Dichloro-phenoxy)-phenylsulfamoyl]-N-(3-piperidin-4-yl-propyl)-benzamide trifluoracetate], in assay [1], the IC50 lay within 20 to 100 nM. Moreover, the Ki in assay [2] lay in the range of 20 to 100 nM.

Regarding `Cc1ccnc(N2CCN(CCNC(=O)c3ccc(S(=O)(=O)Nc4ccccc4Oc4ccc(Cl)cc4Cl)cc3)CC2)c1` [Example 54, 4-[2-(2,4-Dichloro-phenoxy)-phenylsulfamoyl]-N-{2-[4-(4-methyl-pyridin-2-yl)-piperazin-1-yl]-ethyl}-benzamide], the IC50 in assay [1] was in the range of 20 to 100 nM. In addition, in assay [2], the Ki is 20 to 100 nM.

For `O=C(NCCCN1CCN(c2ccncc2)CC1)c1ccc(S(=O)(=O)Nc2ccccc2Oc2ccc(Br)cc2)cc1` [Example 114, 4-[2-(4-Bromo-phenoxy)-phenylsulfamoyl]-N-[3-(4-pyridin-4-yl-piperazin-1-yl)-propyl]-benzamide], the IC50 in assay [1] is less than 20 nM. For the same molecule, in assay [2], the Ki was less than 20 nM.

In the case of `O=C(NCCCCC1CCNCC1)c1ccc(S(=O)(=O)Nc2ccccc2Oc2ccc(F)cc2Cl)cc1` [Example 135, 4-[2-(2-Chloro-4-fluoro-phenoxy)-phenylsulfamoyl]-N-(4-piperidin-4-yl-butyl)-benzamide hydrochloride], the IC50 in assay [1] fell in the range of 20 to 100 nM. Also, in assay [2], the Ki fell in the range of 20 to 100 nM.

With `O=C(NCCN1CCN(c2ccncc2)CC1)c1cccc(S(=O)(=O)Nc2ccccc2Oc2ccc(Cl)cc2Cl)c1` [Example 10, 3-[2-(2,4-Dichloro-phenoxy)-phenylsulfamoyl]-N-[2-(4-pyridin-4-yl-piperazin-1-yl)-ethyl]-benzamide dihydrochloride], the IC50 in assay [1] lay within 20 to 100 nM. The Ki in assay [2] was less than 20 nM.

Regarding `COc1ccc(Oc2ccccc2NS(=O)(=O)c2ccc(C(=O)NCCCN3CCC(N4CCCCC4)CC3)cc2)c(Cl)c1` [Example 147, N-(3-[1,4′]Bipiperidinyl-1′-yl-propyl)-4-[2-(2-chloro-4-methoxy-phenoxy)-phenylsulfamoyl]-benzamide], the IC50 in assay [1] fell in the range of 20 to 100 nM. Also, the Ki in assay [2] lay in the range of 20 to 100 nM.

Turning to `CC(CNC(=O)c1ccc(S(=O)(=O)Nc2ccccc2Oc2ccc(Cl)cc2Cl)cc1)N1CCN(c2ccncc2)CC1` (centres unmarked) [Example 28, 4-[2-(2,4-Dichloro-phenoxy)-phenylsulfamoyl]-N-{2-[4-pyridin-4-yl-piperazin-1-yl)-propyl]-benzamide], in assay [1], the IC50 is less than 20 nM. Besides, in assay [2], the Ki is less than 20 nM.

Take `O=C(NCCCN1CCC(N2CCCCC2)CC1)c1ccc(S(=O)(=O)Nc2ccccc2Oc2ccc(Cl)c(Cl)c2)cc1` [Example 5, N-(3-[1,4′]Bipiperidinyl-1′-yl-propyl)-4-[2-(3,4-dichloro-phenoxy)-phenylsulfamoyl]-benzamide]: the IC50 in assay [1] was less than 20 nM. Moreover, the Ki in assay [2] is less than 20 nM.

For the molecule `O=C(NCCc1ccc(C2=NCCN2)cc1)c1ccc(S(=O)(=O)Nc2ccccc2Oc2ccc(Br)cc2Cl)cc1` [Example 22, 4-[2-(4-Bromo-2-chloro-phenoxy)-phenylsulfamoyl]-N-{2-[4-(4,5-dihydro-1H-imidazol-2-yl)-phenyl]-ethyl}-benzamide], the IC50 in assay [1] is less than 20 nM. Besides, the Ki in assay [2] is less than 20 nM.

For the molecule “4-[1-(3,4-Dichloro-phenoxy)-phenylsulfamoyl]-N-[3-(4-pyridin-4-yl-piperazin-1-yl)-propyl]-benzamide [Example 66]”, in assay [1], the IC50 was less than 20 nM. In addition, the Ki in assay [2] is less than 20 nM.

Take `O=C(NCCc1ccc(C2=NCCN2)cc1)c1ccc(S(=O)(=O)Nc2ccccc2Oc2ccc(Cl)c(Cl)c2)cc1` [Example 4, 4-[2-(3,4-Dichloro-phenoxy)-phenylsulfamoyl]-N-{2-[4-(4,5-dihydro-1H-imidazol-2-yl)-phenyl]-ethyl}-benzamide]: the IC50 in assay [1] is less than 20 nM. In addition, in assay [2], the Ki was less than 20 nM.

Take `N=C(N)NCc1ccc(CNC(=O)c2ccc(S(=O)(=O)Nc3ccccc3Oc3ccc(Br)cc3)cc2)cc1` [Example 23, 4-[2-(4-Bromo-phenoxy)-phenylsulfamoyl]-N-(4-guanidinomethyl-benzyl)-benzamide hydrochloride]: the IC50 in assay [1] was 100 to 500 nM. Further, the Ki in assay [2] lay in the range of 20 to 100 nM.

Regarding `O=C(N[C@H]1CC[C@H](CCN2CCCC2)CC1)c1ccc(S(=O)(=O)Nc2ccccc2Oc2ccc(Cl)cc2Cl)cc1` [Example 9, trans-4-[2-(2,4-Dichloro-phenoxy)-phenylsulfamoyl]-N-[4-(2-pyrrolidin-1-ylethyl)-cyclohexyl]-benzamide], the IC50 in assay [1] was in the range of 20 to 100 nM. The Ki in assay [2] is less than 20 nM.

As for `Cc1cccc(N2CCN(CCNC(=O)c3ccc(S(=O)(=O)Nc4ccccc4Oc4ccc(Cl)cc4Cl)cc3)CC2)n1` [Example 36, 4-[2-(2,4-Dichloro-phenoxy)-phenylsulfamoyl]-N-{2-[4-(6-methyl-pyridin-2-yl)-piperazin-1-yl]-ethyl}-benzamide], the IC50 in assay [1] lay within 20 to 100 nM. For the same molecule, the Ki in assay [2] was less than 20 nM.

As for `O=C(CCNC(=O)c1ccc(S(=O)(=O)Nc2ccccc2Oc2ccc(Cl)cc2Cl)cc1)NCCC1CCNCC1` [Example 56, 4-[2-(2,4-Dichloro-phenoxy)-phenylsulfamoyl]-N-[2-(2-piperidin-4-yl-ethylcarbamoyl)-ethyl]-benzamide hydrochloride], the IC50 in assay [1] is 20 to 100 nM. In addition, the Ki in assay [2] was less than 20 nM.

Turning to `O=C(NCCc1ccc(C2=NCCN2)cc1)c1ccc(S(=O)(=O)Nc2ccccc2Oc2ccc(Br)cc2)cc1` [Example 7, 4-[2-(4-Bromo-phenoxy)-phenylsulfamoyl]-N-{2-[4-(4,5-dihydro-4H-imidazol-2-yl)-phenyl]-ethyl}-benzamide], the IC50 in assay [1] was less than 20 nM. In addition, in assay [2], the Ki is less than 20 nM.
